Data set [1] can be described thus: Water-solubility test (visual inspection). It counts as physicochemical. As for the experimental part:
The solubility of each compound in the water was evaluated by following protocol. Deionized water (1 ml) was added into glass tube containing 10 mg of compound. After shaking for 10 minutes the sample was visually inspected and formation of solution or suspension was documented.

Data set [2] is described as follows: Solubility in water. Type of data set: physicochemical. Particulars: for solubility: water.
Data set [3] can be described thus: Pharmacokinetics in rats after single oral dose: anle138b in PEG/Cremophor (Phase 1) vs sery433 in aqueous buffer (Phase 2). It counts as in vivo, male Sprague Dawley rats. Particulars: anle138b combined with excipients based on PEG/cremophor. As for the experimental part: In the experiment, a single oral dose of anle138b in PEG/Cremophor (“Phase 1”) and sery433 in aqueous solution (“Phase 2”) at a nominal dose of 10 mg/kg were administered to male Sprague Dawley Rats. The experiments were conducted with three rats which are identified as “1M”, “2M” and “3M”.
This study was designed to assess the pharmacokinetics of anle138b and sery433 in male Sprague Dawley rats following single oral administration of anle138b (Phase 1) and sery433 (Phase 2). During Phase 1 and Phase 2 animals received each test compound, appropriately formulated, on one of two separate dose occasions in a cross over design. The dose level was 10 mg/kg for both compounds. The amount of sery433 was not corrected to the amount of anle138b which is present in the prodrug, so that due to the higher molecular weight of sery433 actually a lower amount of active agent was administered.
Phase 1: three naïve male CD rats were dosed orally with anle138b at a target dose level of 10 mg/kg.
Phase 2: one week later (wash out period), sery433 at a target dose of 10 mg/kg was administered orally to the same animals.
During each phase an individual serial plasma profile was drawn from each animal over a period of 24 hours after dosing.
The vehicle was prepared by weighing Cremophor RH40 (45% of final volume); PEG400 (35% of final volume) and Capryol 90 (20% of final volume). […]

Converted amounts (≈) assume the structure as drawn. Read-outs that look alike come from different tables or passages of the source.

As to `Brc1cccc(-c2cc(-c3ccc4c(c3)OCO4)n[nH]2)c1` [anle138b, 5-(3-Bromophenyl)-3-(3,4-methylenedioxyphenyl)-1H-pyrazole], the “Result of solubility test” value in data set [1] (10 mg compound in 1 ml deionized water, shaking 10 minutes, visual inspection) is “insoluble”. In data set [1] (deionized water, water, thermodynamic from solid, read-out: amount soluble in water), the solubility at 10 min worked out at 0.0686 µg/mL (≈ 0.2 µM). The solubility in data set [2] (read-out: solubility in water) was 0.2 µM; in data set [2] (restates 0.2 μM, read-out: water-solubility) it was 0.07 µg/mL. The “anle138b exposure relative to the exposure reached by administration of sery433” value in data set [3] is given as 25%.
As for `CN(C)c1ccc(-c2cc(-c3cccc(Br)c3)[nH]n2)cc1` [Anle253b, 5-(3-Bromophenyl)-3-(4-dimethylaminophenyl)-1H-pyrazole], the “solubility (in words)” value in data set [2] was “even less soluble than anle138b”.

For the origin of these results see patent US10308671B2, “Water-soluble derivatives of 3,5-diphenyl-diazole compounds” (Max-Planck-Gesellschaft zur Förderung, priority 2015, dated 2019).
